According to patent US20070154567A1, “Use of mercury to treat cancer” (priority 2006, published 2007):

Test system: non-operable neck tumor of unknown origin and metastasis in the lungs
Assay: Oral inorganic mercury (II) treatment of a pet English Setter: blood data and clinical follow-up
Type: in vivo, dog
Set-up: Anion Gap / MCV / MCH / MCHC / Neutrophils, absolute / Lymphocytes, absolute / Monocytes, absolute / Eosinophils, absolute: unit not given here
Protocol: A 10 years old female English Setter was diagnosed with a non-operable neck tumor of unknown origin and metastasis in the lungs.
The dog completed 130-day inorganic mercury (II) treatment that consisted of 58 days of the first treatment course followed by 20 days of an interval period, and the 52-day second treatment course. The formulation contained 1 mM mercury acetate in 20 mM sodium acetate buffer, pH 4.5, with 100 mM sucrose and 150 mM sodium chloride additives. It was introduced orally to the dog three times a day at 0.5 micromole Hg^2+/kg/day. At the start of the treatment, the dog was in poor health condition: was easily tired, had difficulty to swallow, heavy breathing due to lung metastasis. The tumor was easily palpated at the neck. […] These changes were correlated with reduction in ALP levels (Days 5, 22, 40, 65).
During the second treatment course the progression of the disease was slowed down, but not to the degree observed during the first treatment course. The treatment was stopped at Day 128, and the dog was euthanized 2-3 weeks later.

CC(=O)[O-].CC(=O)[O-].[Hg+2] [inorganic mercury (II), mercury acetate]
ALT (SGPT) (Day 5): 84 U/L | AST (SGOT) (Day 5): 22 U/L | Albumin (Day 5): 3.3 g/dL | Albumin/Globulin Ratio (Day 5): 1.1 | Alkaline Phosphatase (ALP) (Day 5): 204 U/L | Amylase (Day 5): 771 U/L | Anion Gap (Day 5): 26 | BUN (Day 5): 39 mg/dL | BUN/Creatinine Ratio (Day 5): 43.3 | CPK (Day 5): 84 U/L | Calcium (Day 5): 11.7 mg/dL | Chloride (Day 5): 113 mE/L | Cholesterol (Day 5): 269 mg/dL | Creatinine (Day 5): 0.9 mg/dL | Direct Billirubin (Day 5): 0 mg/dL | Eosinophils, (%) (Day 5): 4% | Eosinophils, absolute (Day 5): 576 | GGT (Day 5): 2 U/L | Globulin (Day 5): 2.9 g/dL | Glucose (Day 5): 116 mg/dL | Hematocrit (Day 5): 41.8% | Hemoglobin (Day 5): 14.5 g/dL | Indirect Billirubin (Day 5): 0.2 mg/dL | Lipase (Day 5): 799 U/L | Lymphocytes, (%) (Day 5): 48% | Lymphocytes, absolute (Day 5): 6912 | MCH (Day 5): 24.5 | MCHC (Day 5): 34.7 | MCV (Day 5): 71 | Monocytes, (%) (Day 5): 6% | Monocytes, absolute (Day 5): 864 | Na/K ratio (Day 5): 32 | Neutrophils, (%) (Day 5): 41% | Neutrophils, absolute (Day 5): 5904 | Phosphorus (Day 5): 5.2 mg/dL | Platelet count (Day 5): 534 10^3/microl | Potassium (Day 5): 4.8 mE/L | RBC (Day 5): 5.9 10^6/microl | Sodium (Day 5): 152 mE/L | T4 (Day 5): 1.4 µg/dL | Total Billirubin (Day 5): 0.2 mg/dL | Total Protein (Day 5): 6.2 g/dL | WBC (Day 5): 14.4 10^3/microl | tCO2 (Day 5): 18 mEq/L | ALT (SGPT) (Day 22): 84 U/L | AST (SGOT) (Day 22): 13 U/L | Albumin (Day 22): 3.3 g/dL | Albumin/Globulin Ratio (Day 22): 1.2 | Alkaline Phosphatase (ALP) (Day 22): 142 U/L | Amylase (Day 22): 738 U/L | Anion Gap (Day 22): 24 | BUN (Day 22): 17 mg/dL | BUN/Creatinine Ratio (Day 22): 21.3 | CPK (Day 22): 96 U/L | Calcium (Day 22): 10.8 mg/dL | Chloride (Day 22): 113 mE/L | Cholesterol (Day 22): 230 mg/dL | Creatinine (Day 22): 0.8 mg/dL | Direct Billirubin (Day 22): 0 mg/dL | Eosinophils, (%) (Day 22): 2% | Eosinophils, absolute (Day 22): 332 | GGT (Day 22): 3 U/L | Globulin (Day 22): 2.8 g/dL | Glucose (Day 22): 102 mg/dL | Hematocrit (Day 22): 44.7% | Hemoglobin (Day 22): 15.2 g/dL | Indirect Billirubin (Day 22): 0.1 mg/dL | Lipase (Day 22): 718 U/L | Lymphocytes, (%) (Day 22): 64% | Lymphocytes, absolute (Day 22): 10624 | MCH (Day 22): 24.3 | MCHC (Day 22): 34.1 | MCV (Day 22): 71 | Na/K ratio (Day 22): 26 | Neutrophils, (%) (Day 22): 34% | Neutrophils, absolute (Day 22): 5644 | Phosphorus (Day 22): 3.6 mg/dL | Platelet count (Day 22): 483 10^3/microl | Potassium (Day 22): 5.7 mE/L | RBC (Day 22): 6.26 10^6/microl | Sodium (Day 22): 150 mE/L | T4 (Day 22): 1.8 µg/dL | Total Billirubin (Day 22): 0.1 mg/dL | Total Protein (Day 22): 6.1 g/dL | WBC (Day 22): 16.6 10^3/microl | tCO2 (Day 22): 19 mEq/L | ALT (SGPT) (Day 40): 87 U/L | AST (SGOT) (Day 40): 20 U/L | Albumin (Day 40): 3.4 g/dL | Albumin/Globulin Ratio (Day 40): 1.1 | Alkaline Phosphatase (ALP) (Day 40): 111 U/L | Anion Gap (Day 40): 28 | BUN (Day 40): 22 mg/dL | BUN/Creatinine Ratio (Day 40): 24.4 | CPK (Day 40): 124 U/L | Calcium (Day 40): 11.0 mg/dL | Chloride (Day 40): 110 mE/L | Cholesterol (Day 40): 222 mg/dL | Creatinine (Day 40): 0.9 mg/dL | Direct Billirubin (Day 40): 0.1 mg/dL | Eosinophils, (%) (Day 40): 1% | Eosinophils, absolute (Day 40): 160 | GGT (Day 40): 2 U/L | Globulin (Day 40): 3.0 g/dL | Glucose (Day 40): 99 mg/dL | Hematocrit (Day 40): 46.1% | Hemoglobin (Day 40): 14.8 g/dL | Indirect Billirubin (Day 40): 0 mg/dL | Lymphocytes, (%) (Day 40): 64% | Lymphocytes, absolute (Day 40): 10240 | MCH (Day 40): 23.7 | MCHC (Day 40): 32.2 | MCV (Day 40): 74 | Monocytes, (%) (Day 40): 6% | Monocytes, absolute (Day 40): 960 | Na/K ratio (Day 40): 26 | Neutrophils, (%) (Day 40): 29% | Neutrophils, absolute (Day 40): 4640 | Phosphorus (Day 40): 4.6 mg/dL | Platelet count (Day 40): 511 10^3/microl | Potassium (Day 40): 5.7 mE/L | RBC (Day 40): 6.26 10^6/microl | Sodium (Day 40): 151 mE/L | Total Billirubin (Day 40): 0.1 mg/dL | Total Protein (Day 40): 6.4 g/dL | WBC (Day 40): 16 10^3/microl | tCO2 (Day 40): 19 mEq/L | ALT (SGPT) (Day 65): 111 U/L | AST (SGOT) (Day 65): 28 U/L
